Results as given in patent US20080293931A1, “Methods and compositions for the removal of nucleic acid amplification inhibitors” (priority 2006, published 2008).

How the values were obtained:
[1] = Humic acid (HA) removal from aqueous commercial HA solutions by PIR compounds, fluorimetric HA determination; design: key to ε values: ε = −log(1 − efficiency); efficiency = ([HA]i − [HA]f)/[HA]i; details: for performance as PIR compound (in words): commercial humic acid solutions; for Average Efficiency, ε / Avg Reduction Factor: aqueous humic samples seeded with E. coli DNA
Procedure: Humic solutions were in 1×TAE buffer at RT with pH˜7. […] Samples from PIR experiments utilizing these materials were diluted, using 1×TAE, to concentrations falling within the linear response region representative of the humic material used.
In this study, when samples were interrogated for humic acid concentrations via fluorimetry, known concentrations of commercial humic acids were compared to known concentrations of humic standards.
FIG. 1 compares the HA removal from samples containing DNA of interest to the molar concentration of varied PIR compounds by plotting an HA reduction factor as the initial [HA] divided by [HA] following treatment with PIR compounds. The commercially available PIR kit, from Mo-BIO, is placed on FIG. 1 for comparison and was arbitrarily assigned a molar concentration of 1 for convenience. […] The data shown in FIG. 1 were generated from varied initial [HA], ranging from ˜5,000 to 300,000 mg/L HA. These varied initial [HA] values represent a “worst case” scenario and these are in comparison to initial [HA] in extractions from problematic soils generating humic acid concentrations typically less than 5,000 mg/L.
FIG. 2 plots the data from the same experiments represented in FIG. 1, but applying a different approach for data metric. FIG. 2 plots a dimensionless HA removal efficiency (or efficacy) value versus the decade of dilution necessary for successful PCR. The efficiency of HA removal is defined in equation 1 as the initial [HA] minus the final [HA] divided by the initial [HA]. This is essentially a percent removal approach.
Efficiency=[HA]i−[HA]f/[HA]; (1)
To further discriminate efficiency values greater than 0.99, the efficiency was subtracted from the integer value of 1, and the −log was taken of 1-efficiency to generate a non-negative value indicative of HA removal efficiency with greater level of discrimination and resolution of values with high degrees of HA removal. This is described by equation 2.

[2] = tested on: E. coli DNA; assay: PCR of seeded E. coli DNA after PIR treatment of aqueous HA samples (decade of dilution necessary for successful PCR); details: for Typical dilution decade for PCR / range of dilutions (dilution decade for PCR): aqueous humic samples seeded with E. coli DNA; for Decade of dilution: 30 days storage
Procedure: Consideration of dilution factors for successful PCR must also be reviewed. In untreated soil extracts containing DNA of interest, successful PCR of the extracted DNA may occur when the polymerase inhibitor is diluted sufficiently such that inhibition is suppressed and PCR may occur. Typical values for the dilution decade at which PCR is successful in samples containing humic materials and DNA of interest are often around decade four (1×10^4). Accordingly, a dilution factor of 10,000 would be necessary for successful PCR in a typical soil extract/sample. This magnitude of dilution may also impact PCR sensitivity for DNA/species already present at low concentrations and result in not identifying an organism that was present in the original sample extract.
Using this approach for presenting the HA removal data allows for the determination of a PIR compound's effectiveness for HA removal (ε) and compatibility for application in PCR systems via dilution data for PCR.

[3] = PIR 1 M, HAi avg 6,500-12,300 depending on compound (Table 6 c2)
[4] = 4.0 M AMG in phosphate buffer, 30 days storage, 4 C., dark, HA avg ~10,000 mg/L
[5] = 4.0 M AMG in phosphate buffer, 30 days storage, 25 C., dark, HA avg ~10,000 mg/L
[6] = 4.0 M AMG in phosphate buffer, 30 days storage, 25 C., light, HA avg ~10,000 mg/L
[7] = 4.0 M AMG in phosphate buffer, 30 days storage, −20 C., dark, HA avg ~10,000 mg/L
[8] = 5.5 M AMG in phosphate buffer, 30 days storage, 4 C., dark, HA avg ~10,000 mg/L
[9] = 5.5 M AMG in phosphate buffer, 30 days storage, 25 C., dark, HA avg ~10,000 mg/L
[10] = 5.5 M AMG in phosphate buffer, 30 days storage, 25 C., light, HA avg ~10,000 mg/L
[11] = 5.5 M AMG in phosphate buffer, 30 days storage, −20 C., dark, HA avg ~10,000 mg/L
[12] = 0.1M DTPB in phosphate buffer, 30 days storage, 4 C., dark, HA avg 50,300 mg/L
[13] = 0.1M DTPB in phosphate buffer, 30 days storage, 25 C., dark, HA avg 50,300 mg/L
[14] = 0.1M DTPB in phosphate buffer, 30 days storage, 25 C., light, HA avg 50,300 mg/L
[15] = 0.1M DTPB in phosphate buffer, 30 days storage, −20 C., dark, HA avg 50,300 mg/L
[16] = 1.0M DTPB in phosphate buffer, 30 days storage, 4 C., dark, HA avg 50,300 mg/L
[17] = 1.0M DTPB in phosphate buffer, 30 days storage, 25 C., dark, HA avg 50,300 mg/L
[18] = 1.0M DTPB in phosphate buffer, 30 days storage, 25 C., light, HA avg 50,300 mg/L
[19] = 1.0M DTPB in phosphate buffer, 30 days storage, −20 C., dark, HA avg 50,300 mg/L
[20] = 2M DTPB in phosphate buffer, 30 days storage, 4 C., dark, HA avg 50,300 mg/L
[21] = 2M DTPB in phosphate buffer, 30 days storage, 25 C., dark, HA avg 50,300 mg/L
[22] = 2M DTPB in phosphate buffer, 30 days storage, 25 C., light, HA avg 50,300 mg/L
[23] = 2M DTPB in phosphate buffer, 30 days storage, −20 C., dark, HA avg 50,300 mg/L

CC(=O)C[n+]1ccsc1
performance as PIR compound (in words) [1]: did not perform well

1-thiazole-2-propanone bromide [BAT]
Typical dilution decade for PCR [2, 3]: 4
range of dilutions (dilution decade for PCR) [2, 3]: 3-4
Average Efficiency, ε [1, 3]: 0.51
Avg Reduction Factor [1, 3]: 3
performance as PIR compound (in words) [1]: poor performance

N=C(N)NN [AMG, Aminoguanidine, reference compound]
Decade of dilution ([2]; 4.0 M AMG in phosphate buffer, 4 C., dark, HA avg ~10,000 mg/L): 2
Decade of dilution ([2]; 4.0 M AMG in phosphate buffer, 25 C., dark, HA avg ~10,000 mg/L): 2
Decade of dilution ([2]; 4.0 M AMG in phosphate buffer, 25 C., light, HA avg ~10,000 mg/L): 2
Decade of dilution ([2]; 4.0 M AMG in phosphate buffer, −20 C., dark, HA avg ~10,000 mg/L): 2
Decade of dilution ([2]; 5.5 M AMG in phosphate buffer, 4 C., dark, HA avg ~10,000 mg/L): 2
Decade of dilution ([2]; 5.5 M AMG in phosphate buffer, 25 C., dark, HA avg ~10,000 mg/L): 2
Decade of dilution ([2]; 5.5 M AMG in phosphate buffer, 25 C., light, HA avg ~10,000 mg/L): 2
Decade of dilution ([2]; 5.5 M AMG in phosphate buffer, −20 C., dark, HA avg ~10,000 mg/L): 2
Typical dilution decade for PCR ([2]; PIR 4 M, HAi avg 35,000): 4
range of dilutions (dilution decade for PCR) ([2]; PIR 4 M, HAi avg 35,000): 3-4
dilution required for successful PCR products ([2]; both 4.0 and 5.5 M AMG): 2 orders of magnitude
HA reduction factor [1, 4]: 7
ε values [1, 4]: 0.83
HA reduction factor [1, 5]: 6
ε values [1, 5]: 0.81
HA reduction factor [1, 6]: 6
ε values [1, 6]: 0.80
HA reduction factor [1, 7]: 4
ε values [1, 7]: 0.65
ε values ([1]; 4.0M AMG, 30 days storage): less than 1
HA reduction factor [1, 8]: 14
ε values [1, 8]: 1.15
HA reduction factor [1, 9]: 15
ε values [1, 9]: 1.16
HA reduction factor [1, 10]: 19
ε values [1, 10]: 1.13
HA reduction factor [1, 11]: 19
ε values [1, 11]: 1.28
ε values ([1]; 5.5 M AMG, 30 days storage): less than 1.3
Typical HA reduction factors ([1]; AMG 4.0 and 5.5 M, 30 days storage, HA ~10,000 mg/L): less than 20
Average Efficiency, ε ([1]; PIR 4 M, HAi avg 35,000): 0.77
Avg Reduction Factor ([1]; PIR 4 M, HAi avg 35,000): 6
performance as PIR compound (in words) [1]: poor performance

O=C(C[n+]1ccsc1)C[n+]1ccsc1 [DTPB, 1,3-Dithiazole-2-Propanone Dibromide]
Decade of dilution ([2]; 0.1M DTPB in phosphate buffer, 4 C., dark, HA avg 50,300 mg/L): 2
Decade of dilution ([2]; 0.1M DTPB in phosphate buffer, 25 C., dark, HA avg 50,300 mg/L): 2
Decade of dilution ([2]; 0.1M DTPB in phosphate buffer, 25 C., light, HA avg 50,300 mg/L): 2
Decade of dilution ([2]; 0.1M DTPB in phosphate buffer, −20 C., dark, HA avg 50,300 mg/L): 2
Decade of dilution ([2]; 1.0M DTPB in phosphate buffer, 4 C., dark, HA avg 50,300 mg/L): 1
Decade of dilution ([2]; 1.0M DTPB in phosphate buffer, 25 C., dark, HA avg 50,300 mg/L): 1
Decade of dilution ([2]; 1.0M DTPB in phosphate buffer, 25 C., light, HA avg 50,300 mg/L): 1
Decade of dilution ([2]; 1.0M DTPB in phosphate buffer, −20 C., dark, HA avg 50,300 mg/L): 1
Decade of dilution ([2]; 2M DTPB in phosphate buffer, 4 C., dark, HA avg 50,300 mg/L): 1
Decade of dilution ([2]; 2M DTPB in phosphate buffer, 25 C., dark, HA avg 50,300 mg/L): 1
Decade of dilution ([2]; 2M DTPB in phosphate buffer, 25 C., light, HA avg 50,300 mg/L): 1
Decade of dilution ([2]; 2M DTPB in phosphate buffer, −20 C., dark, HA avg 50,300 mg/L): 1
Typical dilution decade for PCR [2, 3]: 2
range of dilutions (dilution decade for PCR) [2, 3]: 1-2
HA reduction factor [1, 12]: 5
ε values [1, 12]: 0.70
HA reduction factor [1, 13]: 6
ε values [1, 13]: 0.76
HA reduction factor [1, 14]: 6
ε values [1, 14]: 0.75
HA reduction factor [1, 15]: 7
ε values [1, 15]: 0.87
HA reduction factor [1, 16]: 143
ε values [1, 16]: 2.16
HA reduction factor [1, 17]: 160
ε values [1, 17]: 2.20
HA reduction factor [1, 18]: 194
ε values [1, 18]: 2.29
HA reduction factor [1, 19]: 114
ε values [1, 19]: 2.06
HA reduction factor [1, 20]: 64
ε values [1, 20]: 1.81
HA reduction factor [1, 21]: 99
ε values [1, 21]: 1.99
HA reduction factor [1, 22]: 107
ε values [1, 22]: 2.03
HA reduction factor [1, 23]: 50
ε values [1, 23]: 1.70
Average Efficiency, ε [1, 3]: 2.18
Avg Reduction Factor [1, 3]: 153
performance as PIR compound (in words) [1]: poor performance
